The record followed here is patent US11332485B2, “Penicillin-binding protein inhibitors” (priority 2017, dated 2022).

One assay deals with E. coli DH5α/pLBII. The assay can be described thus: Broth microdilution MIC assay, empty vector control strain. It is filed as cell-based. The following applies: Escherichia coli, read-out: E. coli DH5α/pLBII Microbiological Activity (MIC). As for the experimental part:
(§1) To determine the ability of test compounds to potentiate the inhibition of the growth of bacterial strains, classic cell based broth microdilution MIC assays were employed. MIC assays are performed according to CLSI methods except where otherwise noted (CLSI, 2011 and CLSI, 2009). The reference strain S. aureus ATCC 29213 and the hyper-permeable E. coli 901C were used to determine the ability of the PBP compounds to inhibit bacterial growth. Briefly, cryo-preserved bacterial cultures of clinical strains are streaked for isolation on appropriate agar medium, in this case Mueller Hinton II agar. Following incubation to allow formation of colonies these plates are sealed with parafilm and stored refrigerated for up to two weeks. For preparation of assay inocula and to ensure low variability, at least 5 colonies are picked from the agar plates with an inoculating loop and aseptically transferred to a culture tube containing 3 mL of Mueller-Hinton Broth (supplemented with divalent cations to required levels based on Manufacturers' certification). The broth culture is grown for 3-5 hours at 37° C. with shaking at 200 rpm. Meanwhile, 2-fold serial dilutions of test compounds are conducted in a 96 well plate with a final volume of 75 μL per well at 2-fold the final desired concentration. After the dilution plates are set up the growing cultures are then diluted in a cuvette containing MH II broth and the optical density is measured at 600 nm. Inocula are diluted such that 75 μL of this culture in Mueller-Hinton Broth results in a starting bacterial concentration of 5×10^5 CFU/mL when added to the dilution plates. The plates are incubated 16-20 hours at 37° C. The MIC is read visually as the lowest concentration well with no bacterial growth.
(§2) To determine if test compounds were affected by CTX-M15, the most abundant extended spectrum β-lactamase in clinical settings worldwide, the inhibition of the growth of an engineered strain of Escherichia coli harboring CTX-M15 was tested. This strain was constructed by cloning the gene encoding CTX-M15 into the NdeI and BamHI restriction endonuclease sites of plasmid pLBII, placing the gene(s) under the control of the Lac promoter. The constructed expression plasmid for CTX-M15 was used to transform competent E. coli DH5a cells to make the engineered strain, including an empty pLBII vector control strain. The classic cell based broth microdilution MIC assay was employed as described above with the addition of control antibiotics, known to be degraded by β-lactamases (Ceftazidime, piperacillin and piperacillin+tazobactam).
Background: In broth dilution the organism is exposed to a series of concentrations in liquid medium.

In assay [1] the test system is hyper-permeable E. coli 901C. The assay can be described thus: Broth microdilution MIC assay. Format: cell-based. The following applies: Escherichia coli, read-out: E. coli 901C MIC. On the procedure:
as §1

The next assay has as its system S. aureus ATCC 29213. The assay can be described thus: Broth microdilution MIC assay. Format: cell-based. The note with it: Staphylococcus aureus. As for the experimental part: as §1
Assay [2] concerns E. coli DH5α/pLBII-CTX-M15. The assay can be described thus: Broth microdilution MIC assay, engineered strain producing CTX-M15. It is filed as cell-based, Escherichia coli. The note with it: Escherichia coli, read-out: E. coli DH5α/pLBII-CTX-M15 Microbiological Activity (MIC). As for the experimental part:
as §1, §2

Where [3] appears, read: ATCC29213, broth microdilution, 16-20 hours at 37° C., read-out: S. aureus 29213 MIC.

The structures appear in SMILES notation. Where two headings read alike, the source gives them in different places.

Take `Nc1nc(C(NC(=O)Cc2ncccn2)C(=O)N[C@H]2Cc3cccc(C(=O)O)c3OB2O)cs1` (stereo partly drawn) [Example 21, (3R)-3-(2-(2-aminothiazol-4-yl)-2-(2-(pyrimidin-2-yl)acetamido)acetamido)-2-hydroxy-3,4-dihydro-2H-benzo[e][1,2]oxaborinine-8-carboxylic acid]: the MIC in the assay with E. coli DH5α/pLBII was > 512 µg/mL; in assay [1] it was 64 to 128 µg/mL; in the assay with S. aureus ATCC 29213 (setting [3]), 64 to 128 µg/mL; in assay [2] it was > 512 µg/mL.
As to `Nc1nc(C(NS(=O)(=O)c2cccnc2)C(=O)N[C@H]2Cc3cccc(C(=O)O)c3OB2O)cs1` (stereo partly drawn) [Example 27, (3R)-3-(2-(2-aminothiazol-4-yl)-2-(pyridine-3-sulfonamido)acetamido)-2-hydroxy-3,4-dihydro-2H-benzo[e][1,2]oxaborinine-8-carboxylic acid], the MIC with E. coli DH5α/pLBII is 128 to 256 µg/mL; in assay [1], < 64 µg/mL; in the assay on S. aureus ATCC 29213 (setting [3]), > 128 µg/mL; in assay [2], 128 to 256 µg/mL.
As for `CCN1CCN(C(=O)NC(C(=O)N[C@@H]2Cc3cccc(C(=O)O)c3OB2O)c2csc(N)n2)C(=O)C1=O` (stereo partly drawn) [Example 33, (3S)-3-(2-(2-aminothiazol-4-yl)-2-(4-ethyl-2,3-dioxopiperazine-1-carboxamido)acetamido)-2-hydroxy-3,4-dihydro-2H-benzo[e][1,2]oxaborinine-8-carboxylic acid], the MIC was 128 to 256 µg/mL in the assay on E. coli DH5α/pLBII, < 64 µg/mL in assay [1], > 128 µg/mL in the assay on S. aureus ATCC 29213 (setting [3]) and 128 to 256 µg/mL in assay [2].
Regarding `Nc1nc(C(NC(=O)CO)C(=O)N[C@H]2Cc3cccc(C(=O)O)c3OB2O)cs1` (stereo partly drawn) [Example 29, (3R)-3-(2-(2-aminothiazol-4-yl)-2-(2-hydroxyacetamido)acetamido)-2-hydroxy-3,4-dihydro-2H-benzo[e][1,2]oxaborinine-8-carboxylic acid], the MIC in the assay with E. coli DH5α/pLBII was 32 to 64 µg/mL; in assay [1], < 64 µg/mL; with S. aureus ATCC 29213 (setting [3]) it was > 128 µg/mL; in assay [2], 32 to 64 µg/mL.
With `CCC(O)[C@H](NC(=O)N1CCN(CC)C(=O)C1=O)C(=O)N[C@H]1Cc2cccc(C(=O)O)c2OB1O` (single isomer, unassigned) [Example 83], the MIC in the assay with E. coli DH5α/pLBII was 128 to 256 µg/mL; in assay [1], 64 to 128 µg/mL; with S. aureus ATCC 29213 (setting [3]), > 128 µg/mL; in assay [2], 128 to 256 µg/mL.
Take `COC(=O)C(=O)NC(C(=O)N[C@H]1Cc2cccc(C(=O)O)c2OB1O)c1csc(N)n1` (stereo partly drawn) [Example 28, (3R)-3-(2-(2-aminothiazol-4-yl)-2-(2-methoxy-2-oxoacetamido)acetamido)-2-hydroxy-3,4-dihydro-2H-benzo[e][1,2]oxaborinine-8-carboxylic acid]: the MIC is 32 to 64 µg/mL in the assay on E. coli DH5α/pLBII, < 64 µg/mL in assay [1], > 128 µg/mL in the assay on S. aureus ATCC 29213 (setting [3]) and 32 to 64 µg/mL in assay [2].
As for `COc1ccc([C@H](N)C(=O)N[C@H]2Cc3cccc(C(=O)O)c3OB2O)cc1` [Example 5, (R)-3-((S)-2-amino-2-(4-methoxyphenyl)acetamido)-2-hydroxy-3,4-dihydro-2H-benzo[e][1,2]oxaborinine-8-carboxylic acid], the MIC in the assay on E. coli DH5α/pLBII is > 512 µg/mL; in assay [1] it was > 128 µg/mL; in the assay on S. aureus ATCC 29213 (setting [3]), 64 to 128 µg/mL; in assay [2], > 512 µg/mL.
On to `Nc1nc(C(NC(=O)Nc2cccnc2)C(=O)N[C@H]2Cc3cccc(C(=O)O)c3OB2O)cs1` (stereo partly drawn) [Example 30, (3R)-3-(2-(2-aminothiazol-4-yl)-2-(3-(pyridin-3-yl)ureido)acetamido)-2-hydroxy-3,4-dihydro-2H-benzo[e][1,2]oxaborinine-8-carboxylic acid], for which the MIC lay within 128 to 256 µg/mL in the assay with E. coli DH5α/pLBII, 64 to 128 µg/mL in assay [1], 64 to 128 µg/mL in the assay with S. aureus ATCC 29213 (setting [3]) and 128 to 256 µg/mL in assay [2].
For the compound `CCN1CCN(C(=O)N[C@H](Cc2c[nH]cn2)C(=O)N[C@H]2Cc3cccc(C(=O)O)c3OB2O)C(=O)C1=O` [Example 40, (R)-3-((R)-2-(4-ethyl-2,3-dioxopiperazine-1-carboxamido)-3-(1H-imidazol-4-yl)propanamido)-2-hydroxy-3,4-dihydro-2H-benzo[e][1,2]oxaborinine-8-carboxylic acid], the MIC in the assay with E. coli DH5α/pLBII was 128 to 256 µg/mL; in assay [1], 64 to 128 µg/mL; in the assay on S. aureus ATCC 29213 (setting [3]), > 128 µg/mL; in assay [2], 128 to 256 µg/mL.
Take `CN(C)C(=O)NC(C(=O)N[C@H]1Cc2cccc(C(=O)O)c2OB1O)c1csc(N)n1` (stereo partly drawn) [Example 14, (3R)-3-(2-(2-aminothiazol-4-yl)-2-(3,3-dimethylureido)acetamido)-2-hydroxy-3,4-dihydro-2H-benzo[e][1,2]oxaborinine-8-carboxylic acid]: the MIC with E. coli DH5α/pLBII was 128 to 256 µg/mL; in assay [1], < 64 µg/mL; in the assay on S. aureus ATCC 29213 (setting [3]), > 128 µg/mL; in assay [2] it was 128 to 256 µg/mL.
On to `Cn1ccc(C(=O)NC(C(=O)N[C@H]2Cc3cccc(C(=O)O)c3OB2O)c2csc(N)n2)cc1=O` (stereo partly drawn) [Example 42, (3R)-3-(2-(2-aminothiazol-4-yl)-2-(1-methyl-2-oxo-1,2-dihydropyridine-4-carboxamido)acetamido)-2-hydroxy-3,4-dihydro-2H-benzo[e][1,2]oxaborinine-8-carboxylic acid], for which the MIC is 32 to 64 µg/mL in the assay with E. coli DH5α/pLBII, < 64 µg/mL in assay [1], 64 to 128 µg/mL in the assay on S. aureus ATCC 29213 (setting [3]) and 32 to 64 µg/mL in assay [2].
For the compound `Nc1nc(C(NC(=O)N2CCN(CCCF)C(=O)C2=O)C(=O)N[C@H]2Cc3cccc(C(=O)O)c3OB2O)cs1` (stereo partly drawn) [Example 54, (3R)-3-(2-(2-aminothiazol-4-yl)-2-(4-(3-fluoropropyl)-2,3-dioxopiperazine-1-carboxamido)acetamido)-2-hydroxy-3,4-dihydro-2H-benzo[e][1,2]oxaborinine-8-carboxylic acid], the MIC is 8 to 16 µg/mL in the assay with E. coli DH5α/pLBII, < 64 µg/mL in assay [1], 64 to 128 µg/mL in the assay with S. aureus ATCC 29213 (setting [3]) and 8 to 16 µg/mL in assay [2].
`CCN1CCN(C(=O)N[C@H](CO)C(=O)N[C@H]2Cc3cccc(C(=O)O)c3OB2O)C(=O)C1=O` [Example 35, (R)-3-((R)-2-(4-Ethyl-2,3-dioxopiperazine-1-carboxamido)-3-hydroxy-propanamido)-2-hydroxy-3,4-dihydro-2H-benzo[e][1,2]oxaborinine-8-carboxylic acid]: the MIC in the assay with E. coli DH5α/pLBII is 32 to 64 µg/mL; in assay [1] it was < 64 µg/mL; with S. aureus ATCC 29213 (setting [3]), > 128 µg/mL; in assay [2] it was 32 to 64 µg/mL.
Turning to `CCNC(=O)NC(C(=O)N[C@H]1Cc2cccc(C(=O)O)c2OB1O)c1csc(N)n1` (stereo partly drawn) [Example 25, (3R)-3-(2-(2-aminothiazol-4-yl)-2-(3-ethylureido)acetamido)-2-hydroxy-3,4-dihydro-2H-benzo[e][1,2]oxaborinine-8-carboxylic acid], the MIC in the assay with E. coli DH5α/pLBII was 32 to 64 µg/mL; in assay [1], < 64 µg/mL; with S. aureus ATCC 29213 (setting [3]), > 128 µg/mL; in assay [2] it was 32 to 64 µg/mL.
As to `Nc1nc(C(NC(=O)c2cscn2)C(=O)N[C@H]2Cc3cccc(C(=O)O)c3OB2O)cs1` (stereo partly drawn) [Example 16, (3R)-3-(2-(2-aminothiazol-4-yl)-2-(thiazole-4-carboxamido)acetamido)-2-hydroxy-3,4-dihydro-2H-benzo[e][1,2]oxaborinine-8-carboxylic acid], the MIC is 128 to 256 µg/mL in the assay on E. coli DH5α/pLBII, < 64 µg/mL in assay [1], 64 to 128 µg/mL in the assay with S. aureus ATCC 29213 (setting [3]) and 128 to 256 µg/mL in assay [2].
Take `CCN1CCN(C(=O)N[C@@H](C)C(=O)N[C@H]2Cc3cccc(C(=O)O)c3OB2O)C(=O)C1=O` [Example 31, (R)-3-((S)-2-(4-Ethyl-2,3-dioxopiperazine-1-carboxamido)propanamido)-2-hydroxy-3,4-dihydro-2H-benzo[e][1,2]oxaborinine-8-carboxylic acid]: the MIC in the assay on E. coli DH5α/pLBII was > 512 µg/mL; in assay [1] it was > 128 µg/mL; in the assay on S. aureus ATCC 29213 (setting [3]), > 128 µg/mL; in assay [2] it was > 512 µg/mL.
Consider `Cc1cc(C)n2c1C=C1C=CC(CCC(=O)NCCON=C(C(=O)N[C@H]3Cc4cccc(C(=O)O)c4OB3O)c3csc(N)n3)=[N+]1[B-]2(F)F` [Example 13, (R)-3-(2-(2-aminothiazol-4-yl)-2-((2-(3-(5,5-difluoro-7,9-dimethyl-5H-4λ^4,5λ^4-dipyrrolo[1,2-c:2′,1′-f][1,3,2]diazaborinin-3-yl)propanamido)ethoxy)imino)acetamido)-2-hydroxy-3,4-dihydro-2H-benzo[e][1,2]oxaborinine-8-carboxylic acid], for which the MIC in the assay on E. coli DH5α/pLBII is > 512 µg/mL; in assay [1], > 128 µg/mL; with S. aureus ATCC 29213 (ATCC29213, read-out: S. aureus 29213 MIC), > 128 µg/mL; in assay [2], > 512 µg/mL.
